The test system of assay [1] is Colon cancer (HCT116) cells. Description: Cell death by combination treatment with anti-cancer drug (MTT). Particulars: Homo sapiens, HCT-116; HCT116, 5-FU 10 μM alone, 24 hours; read-out: cancer cells survived (cell viability). It counts as cell-based.
For assay [2], the system named is Liver cancer (Hep G2) cells. Kind of assay: Xenograft model, combination with anti-cancer drug, tumor volume. It counts as in vivo, BALB/c nude mice. Particulars: sorafenib 10 mg/kg oral 5 times a week alone. As to the method: (§1) Brain (U-87MG), lung (H1975), pancreatic (AsPC-1), or liver (Hep G2) cells (1×10^7 cells) were inoculated into 5-week-old BALB/c nude mice on the back flank, respectively. Then, when tumors were grown to a volume of approximately 150 mm^3, the mice were divided into the control group (control), an anti-cancer drug alone treatment group, and a combination treatment group. […] The tumor size was measured every 6 days using a digital caliper, and the results of changes in tumor volume were compared by the group.
Liver cancer (Hep G2) cells (1×10^7) were inoculated into 5-week-old BALB/c nude mice on the back flank, and the mice were divided into three groups: the control group (Control), single oral administration of 10 mg/kg of sorafenib, and combination administration of sorafenib+10 mg/kg of ADP-ribose. When the tumors were grown to a volume of approximately 150 mm^3, sorafenib was administered orally 5 times a week, and ADP-ribose at 10 mg/kg was injected subcutaneously 3 times a week. The tumor size was measured using a digital caliper, and the results of changes in tumor volume were compared by the group.

Assay [3] deals with Liver cancer (Hep G2) cells. Kind of assay: Cell death by combination treatment with anti-cancer drug (MTT). Particulars: Homo sapiens, HepG2, 24 h, read-out: cancer cells survived (cell viability).
The subject of assay [4] is Brain cancer (U-87MG) cells. Kind of assay: Xenograft model, combination with anti-cancer drug, tumor volume. The assay is classed as in vivo, BALB/c nude mice. Particulars: U-87MG xenograft, Avastin 25 mg/kg intraperitoneal twice a week alone. As to the method: as §1
Brain cancer (U-87MG) cells (1×10^7) were inoculated into 5-week-old BALB/c nude mice on the back flank, and the mice were divided into three groups: the control group (Control), single intraperitoneal administration of 25 mg/kg of Avastin (ingredient name: bevacizumab), and combination administration of Avastin+10 mg/kg of ADP-ribose. When the tumors were grown to a volume of approximately 150 mm^3, Avastin was administered intraperitoneally twice a week, and ADP-ribose at 10 mg/kg was injected subcutaneously 3 times a week. The tumor size was measured using a digital caliper, and the results of changes in tumor volume were compared by the group.

Assay [5] has as its system Lung cancer (H1975) cells. Described as above. It counts as in vivo, BALB/c nude mice. To be noted: osimertinib 1 mg/kg oral twice a week alone. As to the method: as §1
Lung cancer (H1975) cells (1×10^7) were inoculated into 5-week-old BALB/c nude mice on the back flank, and the mice were divided into three groups: the control group (Control), single oral administration of 1 mg/kg of osimertinib, and combination administration of osimertinib+10 mg/kg of ADP-ribose. When the tumors were grown to a volume of approximately 150 mm^3, osimertinib was administered orally twice a week, and ADP-ribose at 10 mg/kg was injected subcutaneously 3 times a week. The tumor size was measured using a digital caliper, and the results of changes in tumor volume were compared by the group.

In assay [6] the test system is Lung cancer (H1975) cells. Description: Cell death by combination treatment with anti-cancer drug (MTT). It counts as cell-based. Particulars: Homo sapiens, NCI-H1975; H1975, osimertinib 1 nM alone, 24 hours; read-out: cancer cells survived (cell viability).
Assay [7] deals with Pancreatic cancer (AsPC-1) cells. The description is as above. The assay is classed as cell-based. To be noted: Homo sapiens, ASPC1, 24 h; read-out: cancer cells survived (cell viability).

Consider `O=c1[nH]cc(F)c(=O)[nH]1` [5-FU, 5-fluorouracil, reference compound], for which, in assay [1], the viability at 10 µM is roughly 51%.
`CNC(=O)c1cc(Oc2ccc(NC(=O)Nc3ccc(Cl)c(C(F)(F)F)c3)cc2)ccn1` [sorafenib, reference compound]: the “final tumor volume lower than that of the control group” value (shortened to “final tumor volume lower than that”) in assay [2] was “about 20%”. Moreover, in assay [2] (control about 2322.4), the final tumor volume entry is on record as “about 1849.8 mm^3”. Besides, the viability at 1 µM in assay [3] is roughly 49%.
As for “bevacizumab: anti-VEGF monoclonal antibody; Avastin (ingredient name: bevacizumab) [reference compound]”, in assay [4], the “final tumor volume lower than that” value is given as “about 37%”. The final tumor volume entry in assay [4] (control about 2527.1) is on record as “about 1598.9 mm^3”.
Regarding `C=CC(=O)Nc1cc(Nc2nccc(-c3cn(C)c4ccccc34)n2)c(OC)cc1N(C)CCN(C)C` [osimertinib, reference compound], the “final tumor volume lower than that” value in assay [5] is “about 17%”. Besides, the final tumor volume result in assay [5] (control about 2265.5) is given as “about 1881.9 mm^3”. For the same molecule, the viability at 0.001 µM in assay [6] was roughly 50%.
For the molecule `Nc1ccn([C@@H]2O[C@H](CO)[C@@H](O)C2(F)F)c(=O)n1` [gemcitabine, reference compound], in assay [7], the viability at 1 µM was roughly 54%.

The values above are taken from patent US20230372382A1, “USE OF ADENOSINE DIPHOSPHATE RIBOSE FOR ADJUVANT THERAPY WITH RADIATION AND/OR ANTI-CANCER TREATMENT” (PearlsInMires Co., Ltd., priority 2021, published 2023).
